# Source: patent US9434711B2 (Janssen Pharmaceutica, NV, priority 2007, dated 2016)
# Target: canine TRPM8 (Canis lupus familiaris, UniProt Q1A7N1)
# Experiment: In Vitro Canine TRPM8 Functional Assay (Ca2+ fluorescence, icilin activation)
# Format: cell-based
# Conditions: for IC50: HEK293 cells stably expressing canine TRPM8, icilin activation, eight-point dose-response, read-out: IC50; for inhibition at 0.2 µM: compound at 0.2 μM, canine TRPM8, icilin activation, read-out: % Inh @ 0.2
# Method in brief: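 Eight-point dose-response curves, each point averaging quadruplicate wells, gave EC50 or IC50. Canine TRPM8-expressing HEK293 cells, dye-loaded (Calcium 3), were pre-exposed 5 min to compound, then challenged with icilin at roughly EC80; intracellular Ca2+ read by FLIPR or FDSS fluorescence.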
# Chain of canine TRPM8 (Q1A7N1 1-1104): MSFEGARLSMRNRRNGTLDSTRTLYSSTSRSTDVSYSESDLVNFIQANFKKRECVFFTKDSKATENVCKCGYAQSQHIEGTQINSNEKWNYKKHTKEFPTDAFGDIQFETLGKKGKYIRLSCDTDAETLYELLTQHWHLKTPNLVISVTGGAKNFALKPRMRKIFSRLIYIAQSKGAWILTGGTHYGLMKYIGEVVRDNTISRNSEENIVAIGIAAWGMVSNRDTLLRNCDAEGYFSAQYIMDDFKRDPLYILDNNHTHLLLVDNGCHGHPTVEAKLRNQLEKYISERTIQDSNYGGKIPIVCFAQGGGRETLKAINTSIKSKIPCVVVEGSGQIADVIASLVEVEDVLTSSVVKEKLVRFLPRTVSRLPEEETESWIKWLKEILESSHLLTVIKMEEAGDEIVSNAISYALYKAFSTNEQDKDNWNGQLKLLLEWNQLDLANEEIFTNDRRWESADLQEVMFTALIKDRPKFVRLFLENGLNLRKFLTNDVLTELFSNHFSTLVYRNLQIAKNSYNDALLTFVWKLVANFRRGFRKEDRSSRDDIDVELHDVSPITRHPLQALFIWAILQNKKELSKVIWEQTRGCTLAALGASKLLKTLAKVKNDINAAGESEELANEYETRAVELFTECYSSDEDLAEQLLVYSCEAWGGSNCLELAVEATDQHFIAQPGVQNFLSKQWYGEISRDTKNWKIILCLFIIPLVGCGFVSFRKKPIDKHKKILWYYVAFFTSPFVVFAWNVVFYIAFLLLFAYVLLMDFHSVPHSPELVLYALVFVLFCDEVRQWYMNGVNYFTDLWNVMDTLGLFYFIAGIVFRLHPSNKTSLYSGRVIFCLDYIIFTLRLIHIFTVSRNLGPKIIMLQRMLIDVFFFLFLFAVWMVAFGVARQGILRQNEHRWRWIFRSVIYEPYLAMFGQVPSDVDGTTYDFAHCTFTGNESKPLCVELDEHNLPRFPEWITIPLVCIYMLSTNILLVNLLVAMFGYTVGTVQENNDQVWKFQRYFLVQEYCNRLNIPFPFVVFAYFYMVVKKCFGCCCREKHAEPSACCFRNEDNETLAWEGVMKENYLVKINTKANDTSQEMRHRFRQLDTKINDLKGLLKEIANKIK
IC50 [nM],inhibition at 0.2 µM [%],Compound
22.1,101,"Cc1c(N(Cc2cccc(OC(F)(F)F)c2)S(=O)(=O)CCCO)sc2ccccc12 [Compound 764, N-(3-Methyl-benzo[b]thiophen-2-yl)-N-(3-trifluoromethoxy-benzyl)-3-hydroxy-propanesulfonamide]"
13.6,101,"Cc1c(N(Cc2ccc(F)c(C(F)(F)F)c2)S(=O)(=O)CCCC(=O)O)sc2ccccc12 [Compound 765, N-(4-Fluoro-3-trifluoromethyl-benzyl)-N-(3-methyl-benzo[b]thiophen-2-yl)-3-carboxy-propanesulfonamide]"
7.8,101,"COc1cc(NS(C)(=O)=O)c(Cl)cc1S(=O)(=O)N(Cc1ccc(F)c(C(F)(F)F)c1)c1sc2ccccc2c1Cl [Compound 766, 5-Chloro-N-(3-chloro-benzo[b]thiophen-2-yl)-N-(4-fluoro-3-trifluoromethyl-benzyl)-4-methanesulfonylamino-2-methoxy-benzenesulfonamide]"
89.2,77,"Cc1c(N(Cc2ccc(F)c(C(F)(F)F)c2)S(=O)(=O)c2ccc3c(c2)CN(C)CC3)sc2ccccc12 [Compound 767, 2-Methyl-N-(4-fluoro-3-trifluoromethyl-benzyl)-N-(3-methyl-benzo[b]thiophen-2-yl)-1,2,3,4-tetrahydroisoquinolin-7-yl-sulfonamide]"
18.8,93,"C=C(C)c1c(N(Cc2cc(OC)c(Cl)cc2F)S(=O)(=O)CC)sc2ccccc12 [Compound 768, N-(4-Chloro-2-fluoro-5-methoxy-benzyl)-N-(3-isopropenyl-benzo[b]thiophen-2-yl)-ethanesulfonamide]"
44,85,"Cc1c(N(Cc2cccc(OC(F)(F)F)c2)S(=O)(=O)CCCBr)sc2ccccc12 [Compound 769, N-(3-Methyl-benzo[b]thiophen-2-yl)-N-(3-trifluoromethoxy-benzyl)-3-bromo-propane-1-sulfonamide]"
7.2,95,"Cc1c(N(Cc2cccc(OC(F)(F)F)c2)S(=O)(=O)C2CC2)sc2ccccc12 [Compound 770, N-(3-Methyl-benzo[b]thiophen-2-yl)-N-(3-trifluoromethoxy-benzyl)-cyclopropanesulfonamide]"
7.2,96,"Cc1c(N(Cc2ccc(F)c(C(F)(F)F)c2)S(=O)(=O)CCCCBr)sc2ccccc12 [Compound 771, N-(4-Fluoro-3-trifluoromethyl-benzyl)-N-(3-methyl-benzo[b]thiophen-2-yl)-4-bromo-butane-1-sulfonamide]"
5.7,95,"CC(=O)c1c(N(Cc2ccc(OC(F)(F)F)cc2)S(=O)(=O)c2ccc(C#N)cc2)sc2ccccc12 [Compound 772, N-(3-Acetyl-benzo[b]thiophen-2-yl)-N-(4-trifluoromethoxy-benzyl)-4-cyano-benzenesulfonamide]"
16.7,94,"CC(=O)c1c(N(CCCCC(F)(F)F)S(=O)(=O)c2ccc(C#N)cc2)sc2ccccc12 [Compound 773, N-(3-Acetyl-benzo[b]thiophen-2-yl)-N-(5,5,5-trifluoro-pentyl)-4-cyano-benzenesulfonamide]"
1.3,95,"Cc1c(N(Cc2ccc(OC(F)(F)F)cc2)S(=O)(=O)c2ccc(C(=O)O)c(F)c2)sc2ccccc12 [Compound 774, N-(3-Methyl-benzo[b]thiophen-2-yl)-N-(4-trifluoromethoxy-benzyl)-3-fluoro-4-carboxy-benzenesulfonamide]"
1.6,95,"Cc1c(N(Cc2ccc(F)c(C(F)(F)F)c2)S(=O)(=O)c2ccc(C(=O)O)c(F)c2)sc2ccccc12 [Compound 775, N-(3-Methyl-benzo[b]thiophen-2-yl)-N-(4-fluoro-3-trifluoromethyl-benzyl)-3-fluoro-4-carboxy-benzenesulfonamide]"
